Source: patent US20080200454A1, “CARBON-LINKED TETRAHYDRO-PYRAZOLO-PYRIDINE MODULATORS OF CATHEPSIN S” (priority 2007, published 2008)
Like-named read-outs stand apart in the source and are kept apart here.

Target: Recombinant human cathepsin S (CatS) (Homo sapiens, UniProt P25774)
Assay: Recombinant human cathepsin S (CatS) inhibition assay, fluorogenic substrate Z-Valine-Valine-Arginine-AMC;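 also: Baculovirus-expressed CatS in pH 5.0 sodium acetate buffer with DTT and NaCl, fluorescence read each minute over 20 min, inhibition derived from rate slope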

Sequence of Recombinant human cathepsin S (CatS) (P25774 115-331): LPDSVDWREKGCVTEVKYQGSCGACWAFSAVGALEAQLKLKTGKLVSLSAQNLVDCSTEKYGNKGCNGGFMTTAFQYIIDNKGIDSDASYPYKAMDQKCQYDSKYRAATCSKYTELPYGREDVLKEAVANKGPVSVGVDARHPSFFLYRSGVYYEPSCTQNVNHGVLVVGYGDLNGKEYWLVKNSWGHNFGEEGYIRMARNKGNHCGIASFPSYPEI

SMILES | IC50 | IC50 (CatS IC50)
CS(=O)(=O)N1CCc2c(c(-c3ccc(Cl)c(C#Cc4ccc(CNCc5ccc(Cl)cc5)cc4)c3)nn2C[C@H](O)CN2CCOCC2)C1 [Example 264, (R)-1-[3-(4-Chloro-3-{4-[(4-chloro-benzylamino)-methyl]-phenylethynyl}-phenyl)-5-methanesulfonyl-4,5,6,7-tetrahydro-pyrazolo[4,3-c]pyridin-1-yl]-3-morpholin-4-yl-propan-2-ol] | 370 nM | –
C[C@H]1COCCN1C[C@H](O)Cn1nc(-c2ccc(Cl)c(C#Cc3ccc(CNCc4ccc(Cl)cc4)cc3)c2)c2c1CCN(S(C)(=O)=O)C2 [Example 265, (2S)-1-[3-(4-Chloro-3-{4-[(4-chloro-benzylamino)-methyl]-phenylethynyl}-phenyl)-5-methanesulfonyl-4,5,6,7-tetrahydro-pyrazolo[4,3-c]pyridin-1-yl]-3-((3S)-3-methyl-morpholin-4-yl)-propan-2-ol] | 140 nM | –
C[C@H]1COCCN1CCCn1nc(-c2ccc(Cl)c(C#Cc3ccc(Cl)c(CNC4CCCC4)c3)c2)c2c1CCN(C(=O)C(N)=O)C2 [Example 269, (S)-2-{3-[4-Chloro-3-(4-chloro-3-cyclopentylaminomethyl-phenylethynyl)-phenyl]-1-[3-(3-methyl-morpholin-4-yl)-propyl]-1,4,6,7-tetrahydro-pyrazolo[4,3-c]pyridin-5-yl}-2-oxo-acetamide] | – | 10 nM
CCCNCc1cc(C#Cc2cc(-c3nn(CCCN4CCOC[C@@H]4C)c4c3CN(C(=O)C(N)=O)CC4)ccc2Cl)ccc1Cl [Example 270, (S)-2-{3-[4-Chloro-3-(4-chloro-3-propylaminomethyl-phenylethynyl)-phenyl]-1-[3-(3-methyl-morpholin-4-yl)-propyl]-1,4,6,7-tetrahydro-pyrazolo[4,3-c]pyridin-5-yl}-2-oxo-acetamide] | – | 20 nM
C[C@H]1COCCN1CCCn1nc(-c2ccc(Cl)c(C#Cc3ccc(Cl)c(COCCCO)c3)c2)c2c1CCN(C(=O)C(N)=O)C2 [Example 274, (S)-2-{3-{4-Chloro-3-[4-chloro-3-(3-hydroxy-propoxymethyl)-phenylethynyl]-phenyl}-1-[3-(3-methyl-morpholin-4-yl)-propyl]-1,4,6,7-tetrahydro-pyrazolo[4,3-c]pyridin-5-yl}-2-oxo-acetamide] | – | 40 nM
CS(=O)(=O)N1CCc2c(c(-c3ccc(Cl)c(C#Cc4ccc5c(c4)CN(C4CC4)CC5)c3)nn2CCCN2CCN(C3CC3)CC2)C1 [Example 276, 7-[(2-Chloro-5-{1-[3-(4-cyclopropylpiperazin-1-yl)propyl]-5-(methylsulfonyl)-4,5,6,7-tetrahydro-1H-pyrazolo[4,3-c]pyridin-3-yl}phenyl)ethynyl]-2-cyclopropyl-1,2,3,4-tetrahydroisoquinoline] | – | 180 nM
C[C@H]1COCCN1CCCn1nc(-c2ccc(Cl)c(C#Cc3ccc4c(c3)CNCC4)c2)c2c1CCN(S(C)(=O)=O)C2 [Example 278, 7-({2-Chloro-5-[1-{3-[(3S)-3-methylmorpholin-4-yl]propyl}-5-(methylsulfonyl)-4,5,6,7-tetrahydro-1H-pyrazolo[4,3-c]pyridin-3-yl]phenyl}ethynyl)-1,2,3,4-tetrahydroisoquinoline] | – | 110 nM
CS(=O)(=O)N1CCc2c(c(-c3ccc(Cl)c(C#Cc4ccc5c(c4)CN(C4CC4)CC5)c3)nn2CCCN2CCN(c3ccccc3)CC2)C1 [Example 280, 7-[(2-Chloro-5-{5-(methylsulfonyl)-1-[3-(4-phenylpiperazin-1-yl)propyl]-4,5,6,7-tetrahydro-1H-pyrazolo[4,3-c]pyridin-3-yl}phenyl)ethynyl]-2-cyclopropyl-1,2,3,4-tetrahydroisoquinoline] | 40 nM | –
C[C@H]1COCCN1CCCn1nc(-c2ccc(Cl)c(C#Cc3ccc4c(c3)CN(C)CC4)c2)c2c1CCN(S(C)(=O)=O)C2 [Example 281, 7-({2-Chloro-5-[1-{3-[(3S)-3-methylmorpholin-4-yl]propyl}-5-(methylsulfonyl)-4,5,6,7-tetrahydro-1H-pyrazolo[4,3-c]pyridin-3-yl]phenyl}ethynyl)-2-methyl-1,2,3,4-tetrahydroisoquinoline] | – | 120 nM
C[C@H]1COCCN1CCCn1nc(-c2ccc(Cl)c(C#Cc3ccc4c(c3)CN(C3CC3)CC4)c2)c2c1CCN(C(=O)C(N)=O)C2 [Example 283, 2-(3-{4-Chloro-3-[(2-cyclopropyl-1,2,3,4-tetrahydroisoquinolin-7-yl)ethynyl]phenyl}-1-{3-[(3S)-3-methylmorpholin-4-yl]propyl}-1,4,6,7-tetrahydro-5H-pyrazolo[4,3-c]pyridin-5-yl)-2-oxoacetamide] | – | 100 nM
CS(=O)(=O)N1CCc2c(c(-c3ccc(Cl)c(C#Cc4ccc5c(c4)CCN(C4CC4)C5)c3)nn2CCCN2CCOCC2)C1 [Example 284, 6-({2-Chloro-5-[5-(methylsulfonyl)-1-(3-morpholin-4-ylpropyl)-4,5,6,7-tetrahydro-1H-pyrazolo[4,3-c]pyridin-3-yl]phenyl}ethynyl)-2-cyclopropyl-1,2,3,4-tetrahydroisoquinoline] | – | 200 nM
C[C@H]1COCCN1CCCn1nc(-c2ccc(Cl)c(C#Cc3ccc(Cl)c(CNCc4ccccc4)c3)c2)c2c1CCN(S(C)(=O)=O)C2 [Example 286, 1-[2-Chloro-5-({2-chloro-5-[1-{3-[(3S)-3-methylmorpholin-4-yl]propyl}-5-(methylsulfonyl)-4,5,6,7-tetrahydro-1H-pyrazolo[4,3-c]pyridin-3-yl]phenyl}ethynyl)phenyl]-N-(phenylmethyl)methanamine] | – | 30 nM

More lines, main results first:

IC50 | SMILES | IC50 (CatS IC50)
10 nM | C[C@H]1COCCN1CCCn1nc(-c2ccc(Cl)c(C#Cc3ccc(Cl)c(CNC[C@@H]4CCCO4)c3)c2)c2c1CCN(C(=O)C(N)=O)C2 [Example 267, 2-{3-[4-Chloro-3-(4-chloro-3-{[((2S)-tetrahydro-furan-2-ylmethyl)-amino]-methyl}-phenylethynyl)-phenyl]-1-[3-((3S)-3-methyl-morpholin-4-yl)-propyl]-1,4,6,7-tetrahydro-pyrazolo[4,3-c]pyridin-5-yl}-2-oxo-acetamide] | –
20 nM | C[C@H]1COCCN1CCCn1nc(-c2ccc(Cl)c(C#Cc3ccc(Cl)c(CNC[C@H]4CCCO4)c3)c2)c2c1CCN(C(=O)C(N)=O)C2 [Example 268, 2-{3-[4-Chloro-3-(4-chloro-3-{[((2R)-tetrahydro-furan-2-ylmethyl)-amino]-methyl}-phenylethynyl)-phenyl]-1-[3-((3S)-3-methyl-morpholin-4-yl)-propyl]-1,4,6,7-tetrahydro-pyrazolo[4,3-c]pyridin-5-yl}-2-oxo-acetamide] | –
20 nM | C[C@H]1COCCN1CCCn1nc(-c2ccc(Cl)c(C#Cc3ccc(Cl)c(CNCCCO)c3)c2)c2c1CCN(C(=O)C(N)=O)C2 [Example 271, (S)-2-{3-(4-Chloro-3-{4-chloro-3-[(3-hydroxy-propylamino)-methyl]-phenylethynyl}-phenyl)-1-[3-(3-methyl-morpholin-4-yl)-propyl]-1,4,6,7-tetrahydro-pyrazolo[4,3-c]pyridin-5-yl}-2-oxo-acetamide] | –
30 nM | C[C@H]1COCCN1CCCn1nc(-c2ccc(Cl)c(C#Cc3ccc(Cl)c(CN(CCO)CCO)c3)c2)c2c1CCN(C(=O)C(N)=O)C2 [Example 272, (S)-2-{3-[3-(3-{[Bis-(2-hydroxy-ethyl)-amino]-methyl}-4-chloro-phenylethynyl)-4-chloro-phenyl]-1-[3-(3-methyl-morpholin-4-yl)-propyl]-1,4,6,7-tetrahydro-pyrazolo[4,3-c]pyridin-5-yl}-2-oxo-acetamide] | –
40 nM | CNCCCNC(=O)c1cc(C#Cc2cc(-c3nn(CCCN4CCOC[C@@H]4C)c4c3CN(C(=O)C(N)=O)CC4)ccc2Cl)ccc1Cl [Example 273, (S)-5-(5-{5-Aminooxalyl-1-[3-(3-methyl-morpholin-4-yl)-propyl]-4,5,6,7-tetrahydro-1H-pyrazolo[4,3-c]pyridin-3-yl}-2-chloro-phenylethynyl)-2-chloro-N-(3-methylamino-propyl)-benzamide] | –
50 nM | C[C@H]1COCCN1CCCn1nc(-c2ccc(Cl)c(C#Cc3ccc(Cl)c(COC4CCNC4)c3)c2)c2c1CCN(C(=O)C(N)=O)C2 (stereo partly drawn) [Example 275, (S)-2-[3-[4-Chloro-3-[4-chloro-3-(pyrrolidin-3-yloxymethyl)-phenylethynyl]-phenyl}-1-[3-(3-methyl-morpholin-4-yl)-propyl]-1,4,6,7-tetrahydro-pyrazolo[4,3-c]pyridin-5-yl}-2-oxo-acetamide] | –
200 nM | C[C@H]1COCCN1CCCn1nc(-c2ccc(Cl)c(C#Cc3ccc4c(c3)CN(C3CC3)CC4)c2)c2c1CCN(S(C)(=O)=O)C2 [Example 277, 7-({2-Chloro-5-[1-{3-[(3S)-3-methylmorpholin-4-yl]propyl}-5-(methylsulfonyl)-4,5,6,7-tetrahydro-1H-pyrazolo[4,3-c]pyridin-3-yl]phenyl}ethynyl)-2-cyclopropyl-1,2,3,4-tetrahydroisoquinoline] | –
110 nM | CC(C)N1CCc2ccc(C#Cc3cc(-c4nn(CCCN5CCOC[C@@H]5C)c5c4CN(S(C)(=O)=O)CC5)ccc3Cl)cc2C1 [Example 279, 7-({2-Chloro-5-[1-{3-[(3S)-3-methylmorpholin-4-yl]propyl}-5-(methylsulfonyl)-4,5,6,7-tetrahydro-1H-pyrazolo[4,3-c]pyridin-3-yl]phenyl}ethynyl)-2-(1-methylethyl)-1,2,3,4-tetrahydroisoquinoline] | –
150 nM | C[C@H]1COCCN1CCCn1nc(-c2ccc(Cl)c(C#Cc3ccc4c(c3)CN(C3CC3)CC4)c2)c2c1CCN(C(N)=O)C2 [Example 282, 3-{4-Chloro-3-[(2-cyclopropyl-1,2,3,4-tetrahydroisoquinolin-7-yl)ethynyl]phenyl}-1-{3-[(3S)-3-methylmorpholin-4-yl]propyl}-1,4,6,7-tetrahydro-5H-pyrazolo[4,3-c]pyridine-5-carboxamide] | –
20 nM | C[C@H]1COCCN1CCCn1nc(-c2ccc(Cl)c(C#Cc3ccc(Cl)c(CNCc4ccccc4)c3)c2)c2c1CCN(C(=O)C(N)=O)C2 [Example 285, 2-(3-{4-Chloro-3-[(4-chloro-3-{[(phenylmethyl)amino]methyl}phenyl)ethynyl]phenyl}-1-{3-[(3S)-3-methylmorpholin-4-yl]propyl}-1,4,6,7-tetrahydro-5H-pyrazolo[4,3-c]pyridin-5-yl)-2-oxoacetamide] | –
